From patent US10125184B2, “Apolipoprotein E polypeptides and their use” (priority 2011, dated 2018)
Ends that are not written are not given here. Peptide text beside a SMILES is read from it.

Assays:
[1] = system: JFH-1 HCVcc-Luc; details: for IC50: HCVcc infection of Huh7.5.1 cells
Method: FIGS. 1A-1C. […] (A) Schematic illustration of apoE protein domains and the amino acid sequences of hEP and mEP peptides. The amino acid sequences shown are hEP-1 (SEQ ID NO: 6) and mEP (SEQ ID NO: 20). […] Huh7.5.1 cells were infected with JFH-1 HCVcc-Luc (MOI˜0.5) in the presence of hEP or mEP for 2 hours. After removal of virus and peptides, cells were further incubated for 48 hours prior to luciferase assay. Data are presented as % inhibition relative to control infections in which cells were treated with DMSO (0%). Results are expressed as mean±standard deviation (s.d.) (n=3). (C). Huh7.5.1 cells were treated with hEP or DMSO at indicated doses for 48 hours. The effect of hEP on cell viability was measured by a CellTiter Glo assay kit.
FIGS. 7A-7E. Mapping the anti-viral activity of hEP. In (A) and (B), HCVcc-luc was first mixed with indicated peptides (20 μg/ml, 2.7 μM) and then incubated with Huh7.5.1 cells for two hours at 37° C. to initiate infection. After additional 48 hours incubation, luciferase activity was measured. Results are presented as fold of inhibition relative to infections containing DMSO (n=5, mean±sd). (C) 20 μg of hEP-2 or hEP-2/ΔCys were resuspended in PBS and kept at room temperature for 30 minutes. Peptides were then mixed with 2×SDS-sample buffer without DTT and boiled for 5 minutes. Alternatively, samples were simply left unboiled or mixed with sample buffer containing DTT (2 mM). Peptide samples were then subjected to electrophoresis on a 16% tricine non-reducing gel (Invitrogen). […] (D) and (E) Mass spectrometric analysis of hEP-2 or hEP-2/ΔCys.
Detailed procedures involving the production and use of HCVpp and HCVcc have been published elsewhere (Liu et al., J Virol 2009; 83:2011-2014; Yang et al., Hepatology 2008; 48:1396-1403; Yang et al., J Biol Chem 2008; 283:8643-8653). Production procedure of HCVcc expressing firefly luciferase that was inserted between NS5A and NS5B (JFH-1 strain) was described elsewhere (Liu et al., Virology 2010; 407:160-170). Unless otherwise indicated, viruses were typically added to cells for two hours before removal. Cells were incubated for additional 48 hours followed by luciferase assay. When purification was needed, HCVcc were subjected to ultracentrifugation (SW41, 28,000×g) for 4 hours through a 20% sucrose cushion. Deidentified human sera, collected from five patients containing high-titer HCV (HCVser), were obtained.

[2] = physchem
[3] = DMPC binding assay (turbidity OD490nm); details: reduction (percentage) of turbidity (OD490nm) of DMPC solution, plateau 10 minutes after addition of peptide
Method: FIGS. 3A-3C. Both hEP and mEP mediate plasma cholesterol clearance through hepatic lipoprotein receptors. (A) DMPC binding assay was conducted as described in the examples section. The turbidity of DMPC vesicle solution was monitored by OD490 nm. The curves were representative of two independent experiments. (B) HEK293T cells were loaded with DiI-LDL (5 μg/ml) along with apoE peptide-DMPC particles which competed with DiI-LDL for LDLR binding and LDLR-mediated endocytosis (for 30 min) n=3 for each group. (C) Each peptide (100 μg in 100 μl PBS) was retro-orbitally injected into 6-month-old apoE−/− mice (two mice each group). PBS (100 μl) was injected into two other mice as control. Before (set as 0 min time point) and 5 min, 30 min, 1 h, 2 h, and 4 h after the peptide or PBS injection, 30 μl blood samples were drawn for plasma cholesterol measurement using total Cholesterol Reagent Kit (Raichem, San Diego, Calif.).
1,2-dimyristoyl-sn-glycero-3-phosphatidylcholine (DMPC) (Avanti Polar Lipids Inc., Alabaster, Ala.) was dissolved in chloroform: methanol (3:1, v/v). It was dried thoroughly under a stream of N2. The dried lipid sample was dispersed in pre-warmed buffer (10 mM Tris-HCl, pH7.2; 150 mM NaCl; 0.5 mM EDTA) to final lipid concentration of 10 mg/ml, vortexed for 1 min, and sonicated 10 times at lowest power for 10 seconds at 24° C. The peptide solution, lipid solution and buffer were all maintained at 23.9° C. One milliliter buffer and 250 μg (25 μl lipid solution) were added in a quartz cuvette, and let equilibrate for 10 min, resulting in a turbid DMPC vesicle solution. Peptide solution (250 μg in 100 μl) was then added to turbid solution in the cuvette, the solution was mixed immediately, and the change of turbidity was monitored by OD at 490 nm as a function of time. If the peptide binds to DMPC vesicles, the large DMPC vesicles will be transformed into smaller DMPC-peptide particles, reducing the turbidity of the solution.

[4] = system: HCVcc-luc; experiment: Attachment versus post-attachment inhibition assay; format: cell-based, Hepatitis C virus; details: heparin 200 μg/ml, anti-CD81 5 μg/ml, hEP 20 μg/ml, bafilomycin A1 10 nM
Method: FIGS. 5A-5D. hEP inhibits HCV entry at the attachment step. (A) HCVcc-luc was first mixed with either scrambled peptide or hEP-2 (20 μg/ml) for one hour at room temperature. In Group 1, mixed virus was directly added to Huh7.5.1 cells, whereas in Group 2, virus was purified through ultracentrifuge at 28,000×g for 4 hours in order to remove peptide, and then used to infect Huh7.5.1 cells. **p<0.005. (B) The kinetics of hEP- and bafilomycin A1-mediated inhibition were determined by time-of-addition assays, as described in the examples section. Fitted lines represent sigmoidal time-dependent curves (mean of n=3; error bars, s.d.). (C) HCVcc-Luc was added to Huh7.5.1 cells at 4° C. and incubated for 1.5 hrs. Unbound virus was removed by 2 washes with cold media, fresh media was added, and the cells were shifted to 37° C. to allow synchronous infection to proceed. Heparin (200 μg/ml), anti-CD81 monoclonal antibody (5 μg/ml), hEP (20 μg/ml), or bafilomycin A1 (10 nM) were present in the media either continuously, during the 4° C. incubation only (attachment), or during the 37° C. incubation phase only (post-attachment). % Inhibition was calculated as 100-percent infection relative to control infections containing DMSO or an isotype antibody control containing 0.01% sodium azide (for anti-CD81 only) (mean of n=3; error bars, s.d.). (D) The effects of hEP (2.7 μM) or scrambled peptide on HCV binding were determined as described in the examples section. Results were calculated as relative RNA copies with numbers obtained from the scrambled peptide treated wells set to 100 (mean of n=3; error bars, s.d.). **p<0.005.
To investigate the mechanistic action of hEP, three sets of experiments were conducted. First, hEP-2 (SEQ ID NO: 9) or scrambled peptide-treated HCVcc were purified through ultracentrifugation to remove the peptide and then used to infect naïve Huh7.5.1 cells. […] Second, to determine the kinetics of inhibition, a time-of-addition experiment was conducted. HCV remained sensitive to bafilomycin A1, a fusion inhibitor that prevents endosome acidification, until 3 hours after the 37° C. temperature shift (FIG. 5B), which is consistent with previous reports (Koutsoudakis et al., J Virol 2006; 80:5308-5320). […] In order to determine whether hEP-2 (SEQ ID NO: 9) blocks infection at the initial attachment step or a downstream event in the HCV entry process, hEP-2 (SEQ ID NO: 9) was either added together with HCVcc to cells during the 4° C. attachment step only, and then removed prior to shifting the temperature to 37° C., or added only after the temperature shift. As a positive control, hEP-1 was present during the entire course of the experiment. […] Finally, the direct binding of virions to cell surface was measured using a real-time PCR based assay.

| Compound | IC50 [1] [µM] | solubility [2] [µg/mL] | further results |
| --- | --- | --- | --- |
| CC[C@H](C)[C@H](NC(=O)[C@@H](N)CS)C(=O)N[C@@H](CCCNC(=N)N)C(=O)N[C@@H](CC(C)C)C(=O)N[C@@H](CCC(N)=O)C(=O)N[C@@H](C)C(=O)N[C@@H](CCC(=O)O)C(=O)N[C@@H](C)C(=O)N[C@@H](Cc1ccccc1)C(=O)N[C@@H](CCC(N)=O)C(=O)N[C@@H](C)C(=O)N[C@@H](CCCNC(=N)N)C(=O)N[C@@H](CC(C)C)C(=O)N[C@@H](CCCCN)C(=O)N[C@@H](CO)C(=O)N[C@@H](Cc1c[nH]c2ccccc12)C(=O)N[C@@H](Cc1ccccc1)C(=O)N[C@@H](CCC(=O)O)C(=O)N1CCC[C@H]1C(=O)N[C@@H](CC(C)C)C(=O)N[C@H](C(=O)O)C(C)C [hEP-5] | > 10 |  |  |
| CC(C)C[C@H](NC(=O)[C@H](CC(=O)O)NC(=O)[C@H](CC(=O)O)NC(=O)[C@H](C)NC(=O)[C@H](CC(=O)O)NC(=O)[C@H](CCCNC(=N)N)NC(=O)[C@H](CC(C)C)NC(=O)[C@H](CC(C)C)NC(=O)[C@H](CCCNC(=N)N)NC(=O)[C@H](CCCCN)NC(=O)[C@H](CCCNC(=N)N)NC(=O)[C@H](CC(C)C)NC(=O)[C@H](CCCCN)NC(=O)[C@H](CCCNC(=N)N)NC(=O)[C@H](CC(C)C)NC(=O)[C@H](Cc1c[nH]cn1)NC(=O)[C@H](CO)NC(=O)[C@H](C)NC(=O)[C@H](CC(C)C)NC(=O)[C@H](CCCNC(=N)N)NC(=O)[C@@H](NC(=O)[C@H](CCCNC(=N)N)NC(=O)[C@H](CC(C)C)NC(=O)[C@H](CCC(=O)O)NC(=O)[C@@H](N)CCC(=O)O)C(C)C)C(=O)O [hEP-8] | > 10 |  |  |
| CC(C)C[C@H](NC(=O)[C@H](CC(=O)O)NC(=O)[C@H](CC(=O)O)NC(=O)[C@H](C)NC(=O)[C@H](CC(=O)O)NC(=O)[C@H](CCCNC(=N)N)NC(=O)[C@H](CC(C)C)NC(=O)[C@H](CC(C)C)NC(=O)[C@H](CCCNC(=N)N)NC(=O)[C@H](CCCCN)NC(=O)[C@H](CCCNC(=N)N)NC(=O)[C@H](CC(C)C)NC(=O)[C@H](CCCCN)NC(=O)[C@H](CCCNC(=N)N)NC(=O)[C@H](CC(C)C)NC(=O)[C@H](Cc1c[nH]cn1)NC(=O)[C@H](CO)NC(=O)[C@H](C)NC(=O)[C@H](CC(C)C)NC(=O)[C@H](CCCNC(=N)N)NC(=O)[C@@H](NC(=O)[C@H](CCCNC(=N)N)NC(=O)[C@H](CC(C)C)NC(=O)[C@@H](N)CS)C(C)C)C(=O)O [hEP-11] | 4 | < 220 |  |
| CC(C)C[C@H](NC(=O)[C@H](CC(C)C)NC(=O)[C@H](CCCNC(=N)N)NC(=O)[C@H](CCCCN)NC(=O)[C@H](CCCNC(=N)N)NC(=O)[C@H](CC(C)C)NC(=O)[C@H](CCCCN)NC(=O)[C@H](CCCNC(=N)N)NC(=O)[C@H](CC(C)C)NC(=O)[C@@H](N)CS)C(=O)N[C@@H](CCCNC(=N)N)C(=O)N[C@@H](CS)C(=O)O [hEP-12, CLRKLRKRLLRC] (H-CLRKLRKRLLRC-OH; N-terminus and C-terminus assumed) | > 10 | < 220 |  |
| CEEIRARLSTHLRKMRKRLMRDADDLQKRLAVY [mEP-2] | > 10 | > 220 |  |
| CEELRVRLASHLRKLRKRLLRDADDLQKRLAVY [hEP-2] | 0.5 | > 220 |  |
| CEEQAQQIRLQAEAFQARLKSWFEPLVEDM [hEP-3] |  | < 220 | Inhibition of HCVcc infection/entry (in words) ([1]; Huh7.5.1 cells): dramatically reduced ability to inhibit HCVcc entry; DMPC binding [3]: + (+, reduction 25-50%) |
| CVDRYEARLRARALKDRQKRLLKELSLLVRHLD [Scrambled, reference compound] | > 10 | > 220 |  |
| CVRLASHLRKLRKRLLRDADDL [hEP-4] | > 10 | < 220 |  |
| CVRLASHLRKLRKRLLRDADDLQKRLAVY [hEP-10] | 0.8 | > 220 |  |
| EELRVRLASHLRKLRKRLLRDADDLQKRLAVY [hEP-2/ΔCys] | > 10 | > 220 |  |
| LRVRLASHLRKLRKRLLRDADDLQKRLAVY [hEP-7] | > 10 |  |  |
| VRLASHLRKLRKRLLRDADDLIRLQAEAFQARLKSWFEPLV [hEP-6] | > 10 |  |  |
| VRLASHLRKLRKRLLRDADDLQKRLAVY [hEP-9] | > 10 |  |  |
| heparin [reference compound] |  |  | Inhibition when present during the 4° C. attachment step only [4]: predominant |
